Values quoted from earlier work as cited in article PMC4052326, “Alterporriol-Type Dimers from the Mangrove Endophytic Fungus, Alternaria sp. (SK11), and Their MptpB Inhibitions” (Marine Drugs, 2014).

Tested on: clinical multidrug-resistant M. tuberculosis strains
Conditions: result in words; cited from earlier work

4-deoxybostrycin
inhibition against some clinical multidrug-resistant M. tuberculosis strains: good inhibition
